Where two headings read alike, the source gives them in different places.
What was measured:
Format in all cases: biochemical
Btk = target: T1, Btk (Homo sapiens, UniProt Q06187); experiment: Btk in vitro inhibitory activity (one of Method A TR-FRET, Method B electrophoretic mobility shift, Method C radiometric filter binding)
T1 construct: purified from insect cells as a full-length construct containing a N-terminal 6X-His tag; His6 (N); made in house; host or cells: insect cells (Method C)
Method in brief: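 Three alternative formats were used. A radiometric filter-binding read used 8 nM full-length His-BTK with 0.2 mg/mL poly(Glu-Tyr) 4:1 (C); microfluidic separation of 1 μM FAM-peptide by 1 nM BTK gave IC50 from 12-point curves (B); TR-FRET at Km ATP, 0.5 nM Btk, gave Ki(app)-derived IC50 (A).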

TEC = target: T2, TEC (Homo sapiens, UniProt P42680); experiment: Inhibition of a panel of kinases (in vitro HotSpot kinase assay, 33P-ATP, 1 μM ATP); conditions: for IC50: HotSpot kinase assay, 1 μM ATP; for TEC/Btk: ratio of TEC IC50 to Btk IC50 (selectivity)
T2 sequence (P42680 1-631): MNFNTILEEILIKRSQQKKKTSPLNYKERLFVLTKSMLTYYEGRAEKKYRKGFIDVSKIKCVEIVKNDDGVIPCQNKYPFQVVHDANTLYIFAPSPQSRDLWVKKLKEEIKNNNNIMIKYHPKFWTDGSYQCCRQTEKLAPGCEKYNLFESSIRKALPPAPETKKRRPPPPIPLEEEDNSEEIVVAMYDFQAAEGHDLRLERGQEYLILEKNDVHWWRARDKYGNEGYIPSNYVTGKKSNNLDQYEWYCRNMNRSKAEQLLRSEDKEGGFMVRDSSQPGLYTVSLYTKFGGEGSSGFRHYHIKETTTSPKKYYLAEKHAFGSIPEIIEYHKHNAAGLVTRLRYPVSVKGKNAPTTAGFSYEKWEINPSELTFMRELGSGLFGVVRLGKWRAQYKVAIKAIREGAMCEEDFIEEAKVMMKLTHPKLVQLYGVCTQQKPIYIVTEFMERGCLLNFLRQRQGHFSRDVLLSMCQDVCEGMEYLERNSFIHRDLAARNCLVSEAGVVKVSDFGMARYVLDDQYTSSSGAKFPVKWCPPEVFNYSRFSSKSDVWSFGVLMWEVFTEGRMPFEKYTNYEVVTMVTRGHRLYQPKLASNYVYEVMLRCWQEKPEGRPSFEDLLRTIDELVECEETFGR
Method in brief: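 Radiometric read-out: 33P transfer to a suitable substrate by each purified enzyme, ATP at 1 μM. Values are degree of inhibition.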

panel of kinases = target: T3, panel of kinases (Homo sapiens, UniProt P51813); experiment: Inhibition of a panel of kinases (in vitro HotSpot kinase assay, 33P-ATP, 1 μM ATP), other kinases; conditions: BMX wild-type, read-out: BMX-WT IC50
T3 sequence (P51813 1-675): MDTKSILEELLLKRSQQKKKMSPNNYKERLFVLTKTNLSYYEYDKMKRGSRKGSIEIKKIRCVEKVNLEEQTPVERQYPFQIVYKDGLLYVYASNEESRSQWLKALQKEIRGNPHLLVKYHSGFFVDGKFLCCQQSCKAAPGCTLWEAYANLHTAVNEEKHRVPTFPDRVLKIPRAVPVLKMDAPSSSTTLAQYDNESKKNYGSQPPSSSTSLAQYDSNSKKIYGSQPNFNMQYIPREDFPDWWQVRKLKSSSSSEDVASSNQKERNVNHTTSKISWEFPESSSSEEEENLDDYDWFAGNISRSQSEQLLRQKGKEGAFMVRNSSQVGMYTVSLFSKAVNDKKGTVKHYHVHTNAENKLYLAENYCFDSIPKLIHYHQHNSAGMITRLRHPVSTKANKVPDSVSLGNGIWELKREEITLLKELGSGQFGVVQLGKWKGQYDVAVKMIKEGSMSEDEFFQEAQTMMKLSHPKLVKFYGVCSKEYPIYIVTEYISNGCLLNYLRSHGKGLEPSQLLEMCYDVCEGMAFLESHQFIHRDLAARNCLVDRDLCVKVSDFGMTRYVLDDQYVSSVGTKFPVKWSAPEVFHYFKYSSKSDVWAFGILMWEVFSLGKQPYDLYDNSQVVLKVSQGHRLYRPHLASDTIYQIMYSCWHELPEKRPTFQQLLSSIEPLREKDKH
Method: Example 63: Inhibition of a Panel of Kinases The degree of inhibition of a panel of kinases is determined using the in vitro HotSpot kinase assay (purified enzymes, ^33P-ATP, an appropriate substrate and 1 μM ATP).

[1] = wild-type Btk, read-out: Btk-WT IC50
[2] = method is one of A, B or C, not stated which, read-out: IC50 values against Btk

T1 sequence (Q06187 whole entry): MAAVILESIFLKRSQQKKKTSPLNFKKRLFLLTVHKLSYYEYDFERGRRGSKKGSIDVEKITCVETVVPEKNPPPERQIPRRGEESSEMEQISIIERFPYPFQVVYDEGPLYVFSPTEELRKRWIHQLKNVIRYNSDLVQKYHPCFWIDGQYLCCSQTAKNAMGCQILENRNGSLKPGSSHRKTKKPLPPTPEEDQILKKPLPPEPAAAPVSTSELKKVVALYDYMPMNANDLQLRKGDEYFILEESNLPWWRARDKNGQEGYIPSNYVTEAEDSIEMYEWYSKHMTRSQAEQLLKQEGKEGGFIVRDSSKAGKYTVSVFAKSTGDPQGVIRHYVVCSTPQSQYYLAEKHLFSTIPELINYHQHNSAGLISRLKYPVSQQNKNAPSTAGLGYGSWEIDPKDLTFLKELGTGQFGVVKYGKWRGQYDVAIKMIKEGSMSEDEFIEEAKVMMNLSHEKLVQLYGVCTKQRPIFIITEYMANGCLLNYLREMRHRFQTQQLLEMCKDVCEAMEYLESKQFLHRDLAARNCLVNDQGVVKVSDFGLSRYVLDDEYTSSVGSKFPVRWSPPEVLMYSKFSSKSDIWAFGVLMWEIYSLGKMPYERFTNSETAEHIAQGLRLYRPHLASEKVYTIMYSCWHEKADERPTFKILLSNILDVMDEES

Row | IC50 (Btk; [1]) | IC50 (TEC) | IC50 (panel of kinases) | TEC/Btk (TEC) | IC50 (Btk; [2]) | Structure (SMILES)
1 | > 10000 nM | > 10000 nM | 7460 nM | – | – | CC(C)(C)CCC(=O)NCc1ccc(-c2ccnc3[nH]nc(N[C@H]4CC[C@H](O)CC4)c23)cc1F [Compound 19, N-{[2-fluoro-4-(3-{[(1r,4r)-4-hydroxycyclohexyl]amino}-1H-pyrazolo[3,4-b]pyridin-4-yl)phenyl]methyl}-4,4-dimethylpentanamide]
2 | 37.3 nM | 922 nM | 444 nM | 25 | – | C=CC(=O)N1CC[C@@H](Nc2n[nH]c3nccc(-c4cccc(NC(=O)c5noc(C(C)(C)C)n5)c4CO)c23)C1 [Example 160, 5-tert-butyl-N-[2-(hydroxymethyl)-3-(3-{[(3R)-1-(prop-2-enoyl)pyrrolidin-3-yl]amino}-1H-pyrazolo[3,4-b]pyridin-4-yl)phenyl]-1,2,4-oxadiazole-3-carboxamide]
3 | 0.481 nM | 175 nM | 794 nM | – | < 10 nM | CN(C)C/C=C/C(=O)N1CC[C@@H](Nc2n[nH]c3nccc(-c4ccc(CNC(=O)c5noc(C(C)(C)C)n5)c(F)c4)c23)C1 [Example 25, 5-tert-butyl-N-{[4-(3-{[(3R)-1-[(2E)-4-(dimethylamino)but-2-enoyl]pyrrolidin-3-yl]amino}-1H-pyrazolo[3,4-b]pyridin-4-yl)-2-fluorophenyl]methyl}-1,2,4-oxadiazole-3-carboxamide]
4 | 18.9 nM | 3200 nM | 2000 nM | 169 | – | CC(C)(C)c1nc(C(=O)NCc2ccc(-c3ccnc4[nH]nc(N[C@H]5CC[C@@H](N)CC5)c34)cc2F)no1 [Example 153, 5-tert-butyl-N-{[2-fluoro-4-(3-{[(1s,4s)-4-aminocyclohexyl]amino}-1H-pyrazolo[3,4-b]pyridin-4-yl)phenyl]methyl}-1,2,4-oxadiazole-3-carboxamide]
5 | 559 nM | > 10000 nM | 7790 nM | >100 | – | CCc1cc(C(=O)NCc2ccc(-c3ccnc4[nH]nc(N[C@@H]5CCCN(C(=O)N(C)C)[C@@H]5C)c34)cc2F)no1 [Example 171, (2R,3R)-3-{[4-(4-{[(5-ethyl-1,2-oxazol-3-yl)formamido]methyl}-3-fluorophenyl)-1H-pyrazolo[3,4-b]pyridin-3-yl]amino}-N,N,2-trimethylpiperidine-1-carboxamide]
6 | 0.139 nM | 22 nM | 44 nM | – | < 10 nM | CC#CC(=O)N1CC[C@@H](Nc2n[nH]c3nccc(-c4ccc(CNC(=O)c5noc(C(C)(C)C)n5)c(F)c4)c23)C1 [Example 24, N-{[4-(3-{[(3R)-1-(but-2-ynoyl)pyrrolidin-3-yl]amino}-1H-pyrazolo[3,4-b]pyridin-4-yl)-2-fluorophenyl]methyl}-5-tert-butyl-1,2,4-oxadiazole-3-carboxamide]
7 | 739 nM | > 10000 nM | > 10000 nM | >100 | – | CC1(C)Cc2cc(C(=O)NCc3ccc(-c4ccnc5[nH]nc(N[C@@H]6CCNC6)c45)cc3F)[nH]c2C1 [Example 149, N-{[2-fluoro-4-(3-{[(3R)-pyrrolidin-3-yl]amino}-1H-pyrazolo[3,4-b]pyridin-4-yl)phenyl]methyl}-5,5-dimethyl-1H,4H,5H,6H-cyclopenta[b]pyrrole-2-carboxamide]
8 | 59.2 nM | 1040 nM | 3250 nM | – | – | C[C@H]1CC[C@@H](Nc2n[nH]c3nccc(-c4ccc(CNC(=O)c5ccc(C(C)(C)O)cc5F)c(F)c4)c23)CN1C(=O)N(C)C [Example 414, (2S,5R)-5-{[4-(3-fluoro-4-{[2-fluoro-4-(2-hydroxypropan-2-yl)benzamido]methyl}phenyl)-1H-pyrazolo[3,4-b]pyridin-3-yl]amino}-N,N,2-trimethylpiperidine-1-carboxamide]
9 | 167 nM | > 10000 nM | > 10000 nM | >100 | – | CC(C)(C)n1ccc(C(=O)NCc2ccc(-c3ccnc4[nH]nc(N[C@@H]5CCNC5)c34)cc2F)n1 [Example 64, 1-tert-butyl-N-{[2-fluoro-4-(3-{[(3R)-pyrrolidin-3-yl]amino}-1H-pyrazolo[3,4-b]pyridin-4-yl)phenyl]methyl}-1H-pyrazole-3-carboxamide]
10 | 10.1 nM | 3880 nM | 3780 nM | 384 | – | C[C@H]1CC[C@@H](Nc2n[nH]c3nccc(-c4ccc(CN5CCn6c(cc7c6CC(C)(C)C7)C5=O)c(F)c4)c23)CN1C(=O)N(C)C [Example 239, (2S,5R)-5-[(4-{4-[(7,7-dimethyl-1-oxo-1,3,4,6,7,8-hexahydro-2H-cyclopenta[4,5]pyrrolo[1,2-a]pyrazin-2-yl)methyl]-3-fluorophenyl}-1H-pyrazolo[3,4-b]pyridin-3-yl)amino]-N,N,2-trimethylpiperidine-1-carboxamide]
11 | 6.45 nM | – | 6810 nM | – | – | C[C@@H](NC(=O)c1nc(C(C)(C)C)no1)c1ccc(-c2ccnc3[nH]nc(NC4CCOC4)c23)cc1 (stereo partly drawn) [Example 217, 3-tert-butyl-N-[(1R)-1-(4-{3-[(oxolan-3-yl)amino]-1H-pyrazolo[3,4-b]pyridin-4-yl}phenyl)ethyl]-1,2,4-oxadiazole-5-carboxamide]
12 | 901 nM | – | 2030 nM | – | – | O=C(NCc1ccc(-c2ccnc3[nH]nc(NC4CCNC4)c23)cc1F)c1cc(Cl)on1 (centres unmarked) [Example 341, 5-chloro-N-[(2-fluoro-4-{3-[(pyrrolidin-3-yl)amino]-1H-pyrazolo[3,4-b]pyridin-4-yl}phenyl)methyl]-1,2-oxazole-3-carboxamide]
13 | 19.1 nM | – | 6600 nM | – | – | C[C@@H](NC(=O)c1nc(C(C)(C)C)no1)c1ccc(-c2ccnc3[nH]nc(NC4CCOCC4)c23)cc1 [Example 218, 3-tert-butyl-N-[(1R)-1-(4-{3-[(oxan-4-yl)amino]-1H-pyrazolo[3,4-b]pyridin-4-yl}phenyl)ethyl]-1,2,4-oxadiazole-5-carboxamide]
14 | 8.74 nM | – | 5230 nM | – | – | C=CC(=O)N[C@@H]1CCCC[C@H]1Nc1n[nH]c2nccc(-c3ccc(CNC(=O)c4cc(C(C)(C)C)on4)c(F)c3)c12 [Example 313, 5-tert-butyl-N-({2-fluoro-4-[3-({(1R,2R)-2-[(prop-2-enoyl)amino]cyclohexyl}amino)-1H-pyrazolo[3,4-b]pyridin-4-yl]phenyl}methyl)-1,2-oxazole-3-carboxamide]
15 | 719 nM | – | 7000 nM | – | – | O=C(NCc1ccc(-c2ccnc3[nH]nc(NC4CCNC4)c23)cc1F)c1ccc2c(c1)OCCCO2 (centres unmarked) [Example 350, N-[(2-fluoro-4-{3-[(pyrrolidin-3-yl)amino]-1H-pyrazolo[3,4-b]pyridin-4-yl}phenyl)methyl]-3,4-dihydro-2H-1,5-benzodioxepine-7-carboxamide]
16 | 48.3 nM | – | 5500 nM | – | – | CC(=O)N[C@@H]1CCN(c2n[nH]c3nccc(-c4ccc([C@@H](C)NC(=O)c5cc(C(C)(C)O)on5)cc4)c23)C1 [Example 363, N-[(1R)-1-(4-{3-[(3R)-3-acetamidopyrrolidin-1-yl]-1H-pyrazolo[3,4-b]pyridin-4-yl}phenyl)ethyl]-5-(2-hydroxypropan-2-yl)-1,2-oxazole-3-carboxamide]

From patent US20180194762A1 (Pharmacyclics LLC, priority 2017, published 2018)
